From US5604095A, “Unsymmetrically linked bisnaphthalimides as antitumor agents” (Cancer Therapy & Research Center, priority 1994, dated 1997)
Like-named read-outs stand apart in the source and are kept apart here.

Legend:
[1] = cited from earlier work
human cancers = details: literature; cited from earlier work
DNA = assay: Ethidium bromide displacement assay, DNA binding and AT/GC selectivity; details: for Ratio (AT/GC): FI50 poly(dA.dT) / FI50 poly(dG.dC)
Experimental: (§1) Stock Solutions. A 10X Binding solution was prepared by combining 0.93 ml of an aqueous NaCl solution (5M), 2.0 ml of an aqueous Tris HCl (500 mM) solution, 0.1 ml of an EDTA solution (500 mM) and 46.97 ml of water. The resultant solution was 93 mM in NaCl, 20 mM in Tris HCl, and 1 mM in EDTA. Stock DNA solution were prepared as follows: Poly (dG.dC)-(dG.dC) (ε254=8.4/mM; 27-7910-02), poly (dA.dT)-(dA.dT) (ε262=6.6/mM; 27-7870-02), and lambda DNA (δ260-7.0/mM; 27-4111-01) were purchased from Pharmacia. Solutions were prepared by resuspending either poly (dG.dC)-(dG.dC) or poly (dA.dT)-(dA.dT)in 1 ml of 10X DNA Binding Solution. Lambda DNA is already in solution as purchased.
(§2) Determination of concentration of the stock DNA solutions. Poly (dG.dC) - (dG.dC), poly (dA.dt) - (dA.dt) and lambda DNA concentrations were determined as follows: 980 μl of 10X DNA Binding Solution was pipetted into a 1 ml cuvette. A blank was run on the UV spectrophotometer. 20 μl of the DNA stock of unknown concentration was then added into the cuvette. The sample was then scanned between 210 nm to 500 nm and the absorbance recorded at 254 nm for poly (dG.dC)-(dG.dC), at 262 nm for poly (dA.dT)-(dA.dT) and at 260 nm for lambda DNA. The solution was transferred to a clean tube. This procedure was followed for three different solutions with the absorbance taken as the average of the three. The concentration of poly (dG.dC)-(dG.dC) stock was calculated to be A254 /8.4×1000 (in μM). The concentration of poly (dA.dT) - (dA.dT) stock was calculated to be A262 /6.6×1000 (in μM). The concentration of lambda DNA stock was calculated to be A260 /7.0×1000 (in μM).
Ethidium Bromide Displacement Assay. The binding of the bis-naphthalimides to DNA and to synthetic polynucleotide duplexes was determined by an ethidium bromide displacement assay that measures the reduction of fluorescence when ethidium bromide is displaced from DNA (Baguley, 1981). The fluorescence intensity of a 3 ml solution containing 9.3 mM NaCl, 2 mM Tris-HCI (pH 7.0), 100 μM EDTA, 1 μM DNA (in nucleotides) and 1.26 μM ethidium bromide in a quartz cuvette was measured at the excitation (546 nm) and emission (600 nm) wavelengths on a Shimadzu RF5000U spectrofluorometer. Graded concentrations of agent were then added and the fluorescence intensity was measured. The concentration of compound required to reduce the fluorescence intensity by 50% of that of control (FI50) was determined. Therefore, the lower the FI50 the stronger the binding affinity a particular compound has for DNA. […]

B16 melanoma cell line = assay: Growth inhibition (MTT), B16 melanoma cell line; format: cell-based, murine; details: for IC50: B16, 3 days incubation, MTT
Description: (§3) P388 murine leukemic cell line was obtained from the DCT Tumor Repository (National Cancer Institute, Frederick Cancer Research and Development, Frederick Md. 21702). HT29 Human Colon Carcinoma cell line was obtained from the American Type Culture Collection (12301 Parklawn Drive, Rockville, Md. 20852). B16 Melanoma cell line was obtained from DuPont Merck Pharmaceutical Company (Glenolden, Pa. 19036). MCF-7 Human Breast Carcinoma cell line was a gift from Dr. K. Osborne (Department of Medicine, The University of Texas Health Science Center at San Antonio, San Antonio, Tex. 78284). All cell lines were incubated at 37° C. in a humidified atmosphere of 5% CO2 -95% air. Murine B16 melanoma cell line was grown in RPMI 1640 medium supplemented with 10% heat-inactivated fetal bovine serum, 2 mM L-glutamine, 50 units/ml penicillin, 50 μg/ml streptomycin, 25 μg/ml gentamycin, 0.75% sodium bicarbonate, 10 mM HEPES buffer (pH 7.4), and 0.06 mg/ml AntiPPLO. Murine P388 leukemic and the human HT-29 colon adenocarcinoma cell lines were maintained in RPMI 1640 medium supplemented with 10% heat-inactivated fetal bovine serum. MCF-7M human breast adenocarcinoma was maintained in IMEM medium supplemented with 5% non heat-inactivated fetal bovine serum and 1 nM insulin.
(§4) Exponentially growing cells (1-2×10^3 cells, unless specified otherwise) in 0.1 ml medium were seeded on day 0 in a 96-well microtiter plate. On day 1, 0.1 ml aliquots of medium containing graded concentrations of test compounds were added in duplicate to the cell plates. After incubation at 37° C. in a humidified incubator for 3 days (P388, B16) or 6 days (HT-29, MCF-7M), the plates were centrifuged briefly and 100 μl of the growth medium was removed. Cell cultures were incubated with 50 μl of 3-(4,5-dimethylthiazol-2-yl)-2,5-diphenyl-tetrazolium bromide [MTT, 1 mg/ml in Dulbecco's phosphate buffered saline (PBS)] for 4 hr at 37° C. The resulting purple formazan precipitate was solubilized with 200 μl of 0.04N HCl in isopropyl alcohol. Absorbance was monitored in a BioRad Model 3550 Microplate Reader at a test wavelength of 570 nm and a reference wavelength of 630 nm. The absorbance was transferred to a PC 486 computer. The IC50 values were determined by a computer program (EZ-ED50) that fit all of the data to the following four-parameterlogistic equation:
(§5) Y=((Am -Ao)/(1+(X/IC50)^n))+Ao
(§6) where Am is the absorbance of control cells, Ao is the absorbance of cells in the presence of highest agent concentration, Y is the observed absorbance, X is the agent concentration, IC50 is the concentration of agent that inhibits the cell growth by 50% of control cells (based on the absorbance) and n is the slope of the curve.

[2] = system: HT29 human colon carcinoma cell line; assay: Growth inhibition (MTT), HT29 human colon carcinoma cell line; format: cell-based; details: 6 days incubation
Description: as §3, §4, §5, §6

[3] = system: MCF-7 human breast carcinoma cell line; assay: Growth inhibition (MTT), MCF-7 human breast carcinoma cell line; format: cell-based; details: 6 days incubation
Description: as §3, §4, §5, §6

[4] = system: P388 murine leukemic cell line; assay: Growth inhibition (MTT), P388 murine leukemic cell line; format: cell-based; details: Mus musculus, 72 h, 3 days incubation
Description: P388 murine leukemic cell line was obtained from the DCT Tumor Repository (National Cancer Institute, Frederick Cancer Research and Development, Frederick Md. 21702). HT29 Human Colon Carcinoma cell line was obtained from the American Type Culture Collection (12301 Parklawn Drive, Rockville, Md. 20852). B16 Melanoma cell line was obtained from DuPont Merck Pharmaceutical Company (Glenolden, Pa. 19036). MCF-7 Human Breast Carcinoma cell line was a gift from Dr. K. Osborne (Department of Medicine, The University of Texas Health Science Center at San Antonio, San Antonio, Tex. 78284). All cell lines were incubated at 37° C. in a humidified atmosphere of 5% CO2 -95% air. […]
Exponentially growing cells (1-2×10^3 cells, unless specified otherwise) in 0.1 ml medium were seeded on day 0 in a 96-well microtiter plate. […] Absorbance was monitored in a BioRad Model 3550 Microplate Reader at a test wavelength of 570 nm and a reference wavelength of 630 nm. The absorbance was transferred to a PC 486 computer. The IC50 values were determined by a computer program (EZ-ED50) that fit all of the data to the following four-parameterlogistic equation: […]

B16 melanoma = assay: In vivo tumor inhibiting activity vs. B16 melanoma in B6D2F1 mice; details: for Wt. Ch. (Day 7): q.d. × 5, i.p.
Experimental: B16 Melanoma: B6D2F1 mice received i.p. inocula of B16 murine melanoma brei prepared from B16 tumors growing subcutaneously in mice (day 0). On day 1, rumored mice were treated with drugs or vehicle control; the route of drug administration and schedule were selected as appropriate for the study in question. If dosing information for agents was not available, the maximum tolerated dose (MTD) was determined in initial dose finding experiments in non-rumored mice. In a typical experiment, drugs were given at their MTD and 1/2 MTD doses i.p. on a daily×5 schedule.
The mean survival times of all groups were calculated, and results were expressed as mean survival of treated mice/mean survival of control mice (T/C)×100%. A T/C value of 150 means that the mice in the treated group lived 50% longer than those of the control group; this is sometimes referred to as the increase in life space, or ILS value.
Mice that survived for 60 days were considered long term survivors, or cures, in the B16 model. The universally accepted cut-off for activity in this model, which has been used for years by the National Cancer Institute, is T/C=125. Conventional use of B16 over the years has set the following levels of activity: T/C<125, no activity; T/C=125-150, weak activity; T/C=150-200, modest activity; T/C=200-300, high activity; T/C>300, with long term survivors, excellent, curative activity (Goldin et al., 1981).
Statistics were performed on the data using primarily the log rank p-value test.

topoisomerase II = details: Hsiang et al., 1989; cited from earlier work
[5] = target: poly-(dA.dT)-poly-(dA.dT); assay: Ethidium bromide displacement assay, poly(dA.dT)-poly(dA.dT); format: binding; details: 50% reduction of ethidium bromide fluorescence, pH 7.0, read-out: FI50 (the source's name)
Experimental: as §1
as §2, with “A blank was run on the UV spectrophotometer. 20 μl of the DNA stock of unknown concentration was then added into the cuvette.” left out, “The solution was transferred to a clean tube.” left out, “The concentration of lambda DNA stock was calculated to be A260 /7.0×1000 (in μM).” left out

[6] = target: poly-(dG.dC)-poly-(dG.dC); assay: Ethidium bromide displacement assay, poly(dG.dC)-poly(dG.dC); format: binding; details: 50% reduction of ethidium bromide fluorescence, pH 7.0, read-out: FI50 (the source's name)
Experimental: as §1
as §2, with “A blank was run on the UV spectrophotometer. 20 μl of the DNA stock of unknown concentration was then added into the cuvette.” left out, “The solution was transferred to a clean tube.” left out, “The concentration of lambda DNA stock was calculated to be A260 /7.0×1000 (in μM).” left out

Lambda DNA = assay: Ethidium bromide displacement assay, Lambda DNA; format: binding; details: 50% reduction of ethidium bromide fluorescence, pH 7.0, read-out: FI50 (the source's name)
Experimental: as §1
as §2, with “A blank was run on the UV spectrophotometer. 20 μl of the DNA stock of unknown concentration was then added into the cuvette.” left out, “The solution was transferred to a clean tube.” left out, “The concentration of lambda DNA stock was calculated to be A260 /7.0×1000 (in μM).” left out

For `COc1cccc2c1C(=O)c1c(O)c3c(c(O)c1C2=O)C[C@@](O)(C(=O)CO)C[C@@H]3O[C@H]1C[C@H](N)[C@H](O)[C@H](C)O1` [doxorubicin], the cardiomyopathy ([1]; Calabresi and Chabner, 1990) is given as “limited by an unusual cardiomyopathy”.
In the case of `COc1cc(NS(C)(=O)=O)ccc1Nc1c2ccccc2nc2ccccc12` [amsacrine], the clinical anti-tumor activity (human cancers) is given as “exhibit clinical anti-tumor activity”.
In the case of `O=C1c2cccc3cc([N+](=O)[O-])cc(c23)C(=O)N1CCOCCOCCN1C(=O)c2cccc3cc([N+](=O)[O-])cc(c23)C1=O` [Compound 19, 5-[2-(3-Nitronaphthalene-1,8-dicarboximido)ethoxy]-1-(3-nitronaphthalene-1,8-dicarboximido)-3-oxapentane], the “DNA binding (in words)” value (DNA) is reported as “did not bind to DNA”, the “Ratio (AT/GC)” value (DNA) is reported as 1.7 and the “in vitro anticancer activity against B16 melanoma (in words)” value (B16 melanoma cell line; B16 melanoma in vitro) is reported as “potent anticancer activity against this melanoma type”.
Molecule `O=C1c2cccc3cc([N+](=O)[O-])cc(c23)C(=O)N1CCNCCOCCN1C(=O)c2cccc3cc([N+](=O)[O-])cc(c23)C1=O` [Compound 6] has an IC50 [2] of 3 nM, an IC50 [3] of 2.6 nM and an IC50 [4] of 35 nM. For the same molecule, the “Displacement of ethidium bromide / decrease in fluorescence intensity” value (DNA; FIG. 1, graded concentrations) was “dose-dependent decrease in fluorescence intensity”, the “Wt. Ch. (Day 7)” value (B16 melanoma; 15 mg/kg) was -7.4% and the “activity against B16 melanoma compared with DMP840” value (B16 melanoma; comparator DMP840) was “more effective against B16 melanoma”. The “activity compared with DMP840, compounds 22 and 23, and cytoxan” value (B16 melanoma; comparators DMP840, 22, 23, cytoxan) was “more active” and the IC50 (B16 melanoma cell line) was 11 nM.
For `CN(C)CCN1C(=O)c2cccc3cc(N)cc(c23)C1=O` [amonafide], the “intercalator-stabilized-topoisomerase II-DNA cleavable complex formation” value (topoisomerase II) is listed as “result in intercalator-stabilized-topoisomerase II-DNA cleavable complex formation” and the “topoisomerase II inhibition” value (topoisomerase II) is listed as “inhibit topoisomerase II”.
For `O=C1c2c(O)cccc2-c2nn(CCNCCO)c3ccc(NCCNCCO)c1c23` [DuP 941], the clinical anti-tumor activity (human cancers) is given as “exhibit clinical anti-tumor activity”.
For `COc1cccc2c1C(=O)c1c(O)c3c(c(O)c1C2=O)C[C@@](O)(C(C)=O)C[C@@H]3O[C@H]1C[C@H](N)[C@H](O)[C@H](C)O1` [daunorubicin], the cardiomyopathy ([1]; human, in vivo) is listed as “limited by an unusual cardiomyopathy”.
With `O=C1c2cccc3cc([N+](=O)[O-])cc(c23)C(=O)N1CCNCCOCCN1C(=O)c2cccc3cc([N+](=O)[O-])cc(c23)C1=O` [Compound 5, 5-[2-(3-Nitronaphthalene-1,8-dicarboximido)ethylamino]-1-(3-nitronaphthalene-1,8-dicarboximido)-3-oxapentane] the IC50 [5] was 5220 nM, the IC50 [6] was 71 nM and the IC50 ([2]; Homo sapiens, HT-29, 144 h) was 3 nM. The IC50 [3] was 1 nM, the IC50 (Lambda DNA) was 241 nM and the “Ratio (AT/GC)” value (DNA) was 73.5. For the same molecule, the IC50 (B16 melanoma cell line; Mus musculus, B16, 72 h) was 20 nM.
In the case of `O=C1c2c(O)ccc(O)c2C(=O)c2c(NCCNCCO)ccc(NCCNCCO)c21` [mitoxantrone], the clinical anti-tumor activity (human cancers) is given as “exhibit clinical anti-tumor activity”.
`O=C1c2cccc3cc([N+](=O)[O-])cc(c23)C(=O)N1CCNCCNCCN1C(=O)c2cccc3cc([N+](=O)[O-])cc(c23)C1=O` [Compound 22, 2,2'[1,2-ethanediylbis[imino(2,1-ethanediyl)]]-bis[5-nitro-1H-benz[de]isoquinoline-1,3-(2H)-dione] dimethanesulfonate] gave an IC50 [5] of 787 nM, an IC50 [6] of 48 nM and an IC50 ([2]; Homo sapiens, HT-29, 144 h) of 0.48 nM. For the same molecule, the IC50 [3] was 0.53 nM, the IC50 (Lambda DNA) was 53 nM and the “Wt. Ch. (Day 7)” value (B16 melanoma; 2.5 mg/kg) was -0.17%. It also gave an IC50 (B16 melanoma cell line) of 4.3 nM.
In the case of `O=C1c2cccc3cc([N+](=O)[O-])cc(c23)C(=O)N1CCNCCNCCN1C(=O)c2cccc3cc([N+](=O)[O-])cc(c23)C1=O` [Compound 23, 2,2'[1,2-ethanediylbis[imino(2,1-ethanediyl)]]-bis[5-nitro-1H-benz[de]isoquinoline-1,3-(2H)-dione] monomethanesulfonate], the IC50 [2] is reported as 0.52 nM, the IC50 [3] is reported as 1.39 nM and the IC50 [4] is reported as 6 nM. For the same molecule, the “Wt. Ch. (Day 7)” value (B16 melanoma; 2.5 mg/kg) was 0.95% and the IC50 (B16 melanoma cell line) was 12.9 nM.
